Measurements from patent US20210070748A1, “INHIBITORS OF BRUTONS TYROSINE KINASE” (Pharmacyclics LLC, priority 2015, published 2021).

Key:
Assay type in all cases: biochemical
BTK-WT = target: T1, BTK-WT (Homo sapiens, UniProt Q06187); test: Btk in vitro inhibitory activity (one of Method A TR-FRET, Method B electrophoretic mobility shift, Method C radiometric filter binding); details: D-compounds panel data; read-out: IC50 BTK-WT
T1 construct: purified from insect cells as a full-length construct containing an N-terminal 6X-His tag; His6 (N); made in house; host or cells: insect cells (baculovirus Sf21 in Method B)

LCK = LCK (Homo sapiens, UniProt P06239); test: Inhibition of a panel of kinases, in vitro HotSpot kinase assay: LCK; details: D-compounds panel data; 1 μM ATP; read-out: IC50 LCK
ITK = target: T2, ITK (Homo sapiens, UniProt Q08881); test: Inhibition of a panel of kinases, in vitro HotSpot kinase assay: ITK; details: D-compounds panel data; 1 μM ATP
T2 sequence (Q08881 1-620): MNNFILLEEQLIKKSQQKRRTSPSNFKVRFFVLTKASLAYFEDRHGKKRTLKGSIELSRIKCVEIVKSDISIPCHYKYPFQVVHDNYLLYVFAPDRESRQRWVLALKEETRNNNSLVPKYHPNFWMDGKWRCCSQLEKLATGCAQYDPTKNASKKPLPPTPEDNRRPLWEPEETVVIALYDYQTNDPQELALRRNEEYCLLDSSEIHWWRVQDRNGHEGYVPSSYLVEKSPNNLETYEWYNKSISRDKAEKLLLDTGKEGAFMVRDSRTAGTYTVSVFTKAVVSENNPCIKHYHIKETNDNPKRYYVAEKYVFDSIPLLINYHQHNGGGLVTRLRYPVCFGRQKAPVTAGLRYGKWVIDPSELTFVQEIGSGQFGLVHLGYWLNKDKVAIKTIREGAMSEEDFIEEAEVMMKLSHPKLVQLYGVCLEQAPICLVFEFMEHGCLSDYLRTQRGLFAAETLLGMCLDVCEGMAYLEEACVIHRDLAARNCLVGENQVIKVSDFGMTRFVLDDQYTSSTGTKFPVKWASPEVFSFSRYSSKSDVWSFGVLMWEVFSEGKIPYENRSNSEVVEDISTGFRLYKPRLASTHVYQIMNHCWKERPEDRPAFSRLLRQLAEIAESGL
Protocol: (§1) The degree of inhibition of a panel of kinases is determined using the in vitro HotSpot kinase assay (purified enzymes, ^33P-ATP, an appropriate substrate and 1 μM ATP).

EGFR = EGFR (Homo sapiens, UniProt P00533); test: Inhibition of a panel of kinases, in vitro HotSpot kinase assay: EGFR; details: D-compounds panel data; 1 μM ATP
Protocol: as §1

SRC = SRC (Homo sapiens, UniProt P12931); test: Inhibition of a panel of kinases, in vitro HotSpot kinase assay: SRC; details: D-compounds panel data; 1 μM ATP
Protocol: as §1

LCK, sequence (P06239 whole entry): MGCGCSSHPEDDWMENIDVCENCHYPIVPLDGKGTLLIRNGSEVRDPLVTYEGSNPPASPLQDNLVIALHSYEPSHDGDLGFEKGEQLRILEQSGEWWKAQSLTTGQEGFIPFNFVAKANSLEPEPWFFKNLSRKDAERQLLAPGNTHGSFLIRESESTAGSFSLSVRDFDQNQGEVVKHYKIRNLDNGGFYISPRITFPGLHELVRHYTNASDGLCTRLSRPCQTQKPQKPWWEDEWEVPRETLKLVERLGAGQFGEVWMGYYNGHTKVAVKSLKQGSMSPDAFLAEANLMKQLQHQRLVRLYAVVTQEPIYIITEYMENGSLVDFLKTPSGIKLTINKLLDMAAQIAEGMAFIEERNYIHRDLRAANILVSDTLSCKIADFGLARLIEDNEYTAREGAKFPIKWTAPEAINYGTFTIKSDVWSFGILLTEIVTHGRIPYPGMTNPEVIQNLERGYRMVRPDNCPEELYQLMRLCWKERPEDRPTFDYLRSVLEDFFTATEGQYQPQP
EGFR, sequence (P00533 25-1210): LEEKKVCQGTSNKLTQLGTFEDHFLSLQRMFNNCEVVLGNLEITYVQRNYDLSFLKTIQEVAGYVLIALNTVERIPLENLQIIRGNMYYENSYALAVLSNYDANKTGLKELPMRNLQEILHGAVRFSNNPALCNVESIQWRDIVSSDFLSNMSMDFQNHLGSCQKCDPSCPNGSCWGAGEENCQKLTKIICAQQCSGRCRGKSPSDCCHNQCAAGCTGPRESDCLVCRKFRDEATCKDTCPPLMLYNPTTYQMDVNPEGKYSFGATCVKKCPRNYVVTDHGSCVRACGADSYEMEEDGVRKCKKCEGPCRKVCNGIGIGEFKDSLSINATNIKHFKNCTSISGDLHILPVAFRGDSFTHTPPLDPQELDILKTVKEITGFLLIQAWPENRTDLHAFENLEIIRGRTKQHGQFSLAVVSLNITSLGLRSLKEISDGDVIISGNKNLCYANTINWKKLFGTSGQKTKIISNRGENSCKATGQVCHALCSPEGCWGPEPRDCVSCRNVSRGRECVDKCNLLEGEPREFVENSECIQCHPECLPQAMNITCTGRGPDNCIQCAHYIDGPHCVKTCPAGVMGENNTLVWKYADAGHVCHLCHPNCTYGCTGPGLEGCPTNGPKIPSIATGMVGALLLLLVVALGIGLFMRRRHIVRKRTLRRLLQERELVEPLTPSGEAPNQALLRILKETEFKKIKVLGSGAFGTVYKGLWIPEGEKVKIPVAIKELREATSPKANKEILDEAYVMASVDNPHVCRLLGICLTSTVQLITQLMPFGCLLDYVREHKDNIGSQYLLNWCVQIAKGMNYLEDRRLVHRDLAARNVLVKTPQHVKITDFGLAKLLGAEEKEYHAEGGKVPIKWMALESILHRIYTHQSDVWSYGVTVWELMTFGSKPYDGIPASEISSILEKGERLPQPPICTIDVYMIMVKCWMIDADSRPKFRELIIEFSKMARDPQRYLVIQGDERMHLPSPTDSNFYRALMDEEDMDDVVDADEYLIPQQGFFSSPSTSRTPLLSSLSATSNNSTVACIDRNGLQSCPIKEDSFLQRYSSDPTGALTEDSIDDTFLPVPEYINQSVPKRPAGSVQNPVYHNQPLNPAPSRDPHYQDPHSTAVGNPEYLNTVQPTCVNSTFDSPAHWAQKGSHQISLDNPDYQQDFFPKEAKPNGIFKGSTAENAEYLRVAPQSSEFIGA
SRC, sequence (P12931 whole entry): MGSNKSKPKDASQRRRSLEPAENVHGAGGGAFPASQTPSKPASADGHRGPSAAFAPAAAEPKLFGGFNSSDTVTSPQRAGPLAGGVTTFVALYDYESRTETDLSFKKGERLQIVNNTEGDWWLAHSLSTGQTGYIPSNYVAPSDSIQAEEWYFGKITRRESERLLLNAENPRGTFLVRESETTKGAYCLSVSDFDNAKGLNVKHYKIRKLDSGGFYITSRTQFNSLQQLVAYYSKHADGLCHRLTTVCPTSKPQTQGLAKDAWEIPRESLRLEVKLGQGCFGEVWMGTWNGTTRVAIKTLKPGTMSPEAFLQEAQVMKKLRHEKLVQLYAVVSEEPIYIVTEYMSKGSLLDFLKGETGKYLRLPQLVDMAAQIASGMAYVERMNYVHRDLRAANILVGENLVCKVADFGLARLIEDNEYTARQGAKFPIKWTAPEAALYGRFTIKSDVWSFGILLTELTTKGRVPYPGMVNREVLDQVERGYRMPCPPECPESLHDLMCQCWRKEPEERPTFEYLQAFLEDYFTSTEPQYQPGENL
T1 sequence (Q06187 whole entry): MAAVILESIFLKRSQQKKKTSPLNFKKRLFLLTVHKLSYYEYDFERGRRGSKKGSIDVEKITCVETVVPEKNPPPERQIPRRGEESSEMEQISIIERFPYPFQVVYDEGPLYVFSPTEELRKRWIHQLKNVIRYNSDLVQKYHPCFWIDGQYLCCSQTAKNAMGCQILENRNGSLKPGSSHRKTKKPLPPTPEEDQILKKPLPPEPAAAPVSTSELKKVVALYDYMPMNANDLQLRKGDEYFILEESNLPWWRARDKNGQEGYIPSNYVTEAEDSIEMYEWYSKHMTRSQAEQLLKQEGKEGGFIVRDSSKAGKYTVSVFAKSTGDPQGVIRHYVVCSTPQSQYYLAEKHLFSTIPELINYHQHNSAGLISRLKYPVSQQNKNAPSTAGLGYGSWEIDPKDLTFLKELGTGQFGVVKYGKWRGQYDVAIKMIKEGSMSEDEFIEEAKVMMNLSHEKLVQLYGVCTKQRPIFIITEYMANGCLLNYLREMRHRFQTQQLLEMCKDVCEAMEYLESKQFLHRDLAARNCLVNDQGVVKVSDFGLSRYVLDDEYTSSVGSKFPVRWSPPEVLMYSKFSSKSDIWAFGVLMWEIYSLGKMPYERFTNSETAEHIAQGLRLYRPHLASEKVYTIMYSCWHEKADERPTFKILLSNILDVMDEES

| Compound | IC50 (BTK-WT) [µM] | IC50 (LCK) [µM] | IC50 (ITK) [µM] | IC50 (EGFR) [µM] | IC50 (SRC) [µM] |
| --- | --- | --- | --- | --- | --- |
| CC(C)n1cc(Nc2nc(N3CCC[C@@H](NC(=O)c4ccc(C5CC5)cc4F)[C@H]3C)cnc2C(N)=O)cn1 [Example D-123, 5-[(2R,3R)-3-(4-cyclopropyl-2-fluorobenzamido)-2-methylpiperidin-1-yl]-3-{[1-(propan-2-yl)-1H-pyrazol-4-yl]amino}pyrazine-2-carboxamide] | ≤ 0.01 | 0.1 to 1 | 0.1 to 1 | 1 to 10 | 0.1 to 1 |
| C[C@@H]1[C@H](NC(=O)c2ccc(C3CC3)cc2F)CCCN1c1cnc(C(N)=O)c(Nc2ccc3cccnc3c2)n1 [Example D-124, 5-[(2R,3R)-3-(4-cyclopropyl-2-fluorobenzamido)-2-methylpiperidin-1-yl]-3-[(quinolin-7-yl)amino]pyrazine-2-carboxamide] | 0.01 to 0.1 | > 10 | > 10 | > 10 | > 10 |
| C[C@@H]1[C@H](NC(=O)c2ccc(C3CC3)cc2F)CCCN1c1cnc(C(N)=O)c(Nc2ccc(CN3CCN(C)CC3)cc2)c1 [Example D-125, 5-[(2R,3R)-3-(4-cyclopropyl-2-fluorobenzamido)-2-methylpiperidin-1-yl]-3-({4-[(4-methylpiperazin-1-yl)methyl]phenyl}amino)pyridine-2-carboxamide] | ≤ 0.01 | 0.1 to 1 | 1 to 10 | > 10 | 1 to 10 |
| C[C@@H]1[C@H](NC(=O)c2ccc(C3CC3)cc2F)CCCN1c1cnc(C(N)=O)c(Nc2ccc(N3CCN(C)CC3)cc2)c1 [Example D-126, 5-[(2R,3R)-3-(4-cyclopropyl-2-fluorobenzamido)-2-methylpiperidin-1-yl]-3-{[4-(4-methylpiperazin-1-yl)phenyl]amino}pyridine-2-carboxamide] | 0.01 to 0.1 | 0.1 to 1 | 1 to 10 | > 10 | 0.1 to 1 |
| C[C@@H]1[C@H](NC(=O)N(C)C)CCCN1c1cnc(C(N)=O)c(Nc2ccc(N3CCN(C)CC3)cc2)c1 [Example D-127, 5-[(2R,3R)-3-[(dimethylcarbamoyl)amino]-2-methylpiperidin-1-yl]-3-{[4-(4-methylpiperazin-1-yl)phenyl]amino}pyridine-2-carboxamide] | 0.1 to 1 | 1 to 10 | 1 to 10 | > 10 | 1 to 10 |
| C[C@@H]1[C@H](NC(=O)N(C)C)CCCN1c1cnc(C(N)=O)c(Nc2cnn(C)c2)n1 [Example D-128, 5-[(2R,3R)-3-[(dimethylcarbamoyl)amino]-2-methylpiperidin-1-yl]-3-[(1-methyl-1H-pyrazol-4-yl)amino]pyrazine-2-carboxamide] | ≤ 0.01 | 0.1 to 1 | 0.1 to 1 | 1 to 10 | 0.1 to 1 |
| C[C@@H]1[C@H](NC(=O)c2ccc(C3CC3)cc2F)CCCN1c1cnc(C(N)=O)c(Nc2ccn(C)n2)n1 [Example D-129, 5-[(2R,3R)-3-(4-cyclopropyl-2-fluorobenzamido)-2-methylpiperidin-1-yl]-3-[(1-methyl-1H-pyrazol-3-yl)amino]pyrazine-2-carboxamide] | 0.1 to 1 | > 10 | > 10 | 1 to 10 | > 10 |
| C[C@@H]1[C@H](NC(=O)c2ccc(C3CC3)cc2F)CCCN1c1cnc(C(N)=O)c(Nc2ccc(S(=O)(=O)N3CCN(C)CC3)cc2)n1 [Example D-130, 5-[(2R,3R)-3-(4-cyclopropyl-2-fluorobenzamido)-2-methylpiperidin-1-yl]-3-({4-[(4-methylpiperazin-1-yl)sulfonyl]phenyl}amino)pyrazine-2-carboxamide] | ≤ 0.01 | 1 to 10 | 0.1 to 1 | 1 to 10 | 0.1 to 1 |
| Cc1ccc(-c2cnc([C@@H]3CCCN(c4cnc(C(N)=O)c(Nc5cc(C)ns5)n4)[C@@H]3C)[nH]2)cc1 [Example D-131, 3-[(3-methyl-1,2-thiazol-5-yl)amino]-5-[(2R,3R)-2-methyl-3-[5-(4-methylphenyl)-1H-imidazol-2-yl]piperidin-1-yl]pyrazine-2-carboxamide] | 0.01 to 0.1 | 0.1 to 1 | 1 to 10 | 0.1 to 1 | 0.1 to 1 |
| C[C@@H]1[C@H](NC(=O)c2ccc(C3CC3)cc2F)CCCN1c1cnc(C(N)=O)c(Nc2ccc(CN3CCN(C)CC3)cn2)n1 [Example D-132, 5-[(2R,3R)-3-(4-cyclopropyl-2-fluorobenzamido)-2-methylpiperidin-1-yl]-3-({5-[(4-methylpiperazin-1-yl)methyl]pyridin-2-yl}amino)pyrazine-2-carboxamide] | 0.01 to 0.1 | 1 to 10 | 1 to 10 | > 10 | > 10 |
| C[C@@H]1[C@H](NC(=O)c2ccc(C3CC3)cc2F)CCCN1c1cnc(C(N)=O)c(Nc2ccc(S(C)(=O)=O)cc2)n1 [Example D-133, 5-[(2R,3R)-3-(4-cyclopropyl-2-fluorobenzamido)-2-methylpiperidin-1-yl]-3-[(4-methanesulfonylphenyl)amino]pyrazine-2-carboxamide] | ≤ 0.01 | 0.1 to 1 | 0.1 to 1 | 1 to 10 | 0.1 to 1 |
| C[C@@H]1[C@H](NC(=O)c2ccc(C3CC3)cc2F)CCCN1c1cnc(C(N)=O)c(Nc2ccc(C3(C)CCN(C4CCC4)CC3)cc2)n1 [Example D-134, 3-{[4-(1-cyclobutyl-4-methylpiperidin-4-yl)phenyl]amino}-5-[(2R,3R)-3-(4-cyclopropyl-2-fluorobenzamido)-2-methylpiperidin-1-yl]pyrazine-2-carboxamide] | ≤ 0.01 | 0.01 to 0.1 | 0.01 to 0.1 | 0.1 to 1 | 0.01 to 0.1 |
| C[C@@H]1[C@H](NC(=O)c2ccc(C3CC3)cc2)CCCN1c1cnc(C(N)=O)c(Nc2cnn(C)c2)n1 [Example D-135, 5-[(2R,3R)-3-(4-cyclopropylbenzamido)-2-methylpiperidin-1-yl]-3-[(1-methyl-1H-pyrazol-4-yl)amino]pyrazine-2-carboxamide] | ≤ 0.01 | 0.1 to 1 | 0.1 to 1 | 1 to 10 | 0.1 to 1 |
| Cc1ccc(-c2cnc([C@H]3CCCN(c4cnc(C(N)=O)c(Nc5cc(C)ns5)n4)C3)[nH]2)cc1 [Example D-136, 3-[(3-methyl-1,2-thiazol-5-yl)amino]-5-[(3S)-3-[5-(4-methylphenyl)-1H-imidazol-2-yl]piperidin-1-yl]pyrazine-2-carboxamide] | 0.01 to 0.1 | 0.1 to 1 | 1 to 10 | 0.1 to 1 | 0.1 to 1 |
| Cc1ccc(-c2cnc([C@@H]3CCCN(c4cnc(C(N)=O)c(Nc5cc(C)ns5)n4)C3)[nH]2)cc1 [Example D-137, 3-[(3-methyl-1,2-thiazol-5-yl)amino]-5-[(3R)-3-[5-(4-methylphenyl)-1H-imidazol-2-yl]piperidin-1-yl]pyrazine-2-carboxamide] | 0.01 to 0.1 | 1 to 10 | > 10 | 1 to 10 | 1 to 10 |
| C[C@@H]1[C@H](NC(=O)c2ccc(C3CC3)cc2F)CCCN1c1cnc(C(N)=O)c(Nc2ccc(C3(C)CCN(C4CC4)CC3)cc2)n1 [Example D-138, 5-[(2R,3R)-3-(4-cyclopropyl-2-fluorobenzamido)-2-methylpiperidin-1-yl]-3-{[4-(1-cyclopropyl-4-methylpiperidin-4-yl)phenyl]amino}pyrazine-2-carboxamide] | ≤ 0.01 | 0.01 to 0.1 | 0.1 to 1 | 0.1 to 1 | 0.1 to 1 |
| C[C@@H]1[C@H](NC(=O)c2ccc(C3CC3)cc2F)CCCN1c1cnc(C(N)=O)c(Nc2ccc(S(=O)(=O)N3CCCC3)cc2)n1 [Example D-139, 5-[(2R,3R)-3-(4-cyclopropyl-2-fluorobenzamido)-2-methylpiperidin-1-yl]-3-{[4-(pyrrolidine-1-sulfonyl)phenyl]amino}pyrazine-2-carboxamide] | ≤ 0.01 | > 10 | > 10 | 1 to 10 | > 10 |
| C[C@@H]1[C@H](NC(=O)c2ccc(C3CC3)cc2)CCCN1c1cnc(C(N)=O)c(Nc2cc(CN3CCCCC3)ns2)n1 [Example D-140, 5-[(2R,3R)-3-(4-cyclopropylbenzamido)-2-methylpiperidin-1-yl]-3-{[3-(piperidin-1-ylmethyl)-1,2-thiazol-5-yl]amino}pyrazine-2-carboxamide] | ≤ 0.01 | 0.01 to 0.1 | 0.01 to 0.1 | 1 to 10 | 0.01 to 0.1 |
